Structures can show the parent of a compound that is named as a salt. Where two headings read alike, the source gives them in different places.
Tests used:
[1] = Example 17 trial: plasma total bupivacaine pharmacokinetics; assay type: in vivo; conditions: human
Procedure: Plasma PK samples were analyzed for determination of total bupivacaine concentration only and none of the samples were analyzed for determination of free drug concentration.

[2] = system: subjects undergoing elective outpatient laparoscopic cholecystectomy; assay: Example 16 trial: safety; assay type: in vivo
Excerpt: The trial included: 1) a randomized, parallel-group, double-blind, placebo-controlled study (Part 1) and a randomized, parallel-group, double-blind, bupivacaine HCl active-controlled study (Part 2). The trial evaluated the efficacy and safety of Formulation A (bupivacaine, benzyl alcohol, sucrose acetate isobutyrate) as a delivery system in subjects undergoing elective outpatient laparoscopic cholecystectomy.
There were no fatalities in this trial. […]

[3] = system: subjects undergoing elective outpatient laparoscopic cholecystectomy; assay: Example 16 trial: pain intensity on movement after laparoscopic cholecystectomy; assay type: in vivo, human; conditions: Part 2 (N = 148 per group)
Procedure: Part 1: Pain intensity on movement measured at scheduled time points from 0 to 72 hours following test drug administration, adjusted for prior rescue medication use and analyzed by a mixed effect ANOVA model of repeated measures (MMRM).
Part 2: Pain intensity on movement measured at scheduled time points from 0 to 48 hours following test drug administration, adjusted for prior rescue medication use and analyzed by a mixed effect ANOVA model of repeated measures (MMRM).

CCCCN1CCCCC1C(=O)Nc1c(C)cccc1C (stereo not drawn) [bupivacaine HCl, bupivacaine hydrochloride]
Cmax ([1]; Cohort 1): 251 ng/mL | AUC(0-t) ([1]; Cohort 1, read-out: AUC(0-72), mean): 8460 ng·h/mL | AUC(0-t) ([1]; Cohort 1, read-out: AUC(0-last), mean): 7780 ng·h/mL | Tmax ([1]; Cohort 1, read-out: Tmax, median): 16 h | Cmax ([1]; Cohort 2): 371 ng/mL | AUC(0-t) ([1]; Cohort 2, read-out: AUC(0-72), mean): 6770 ng·h/mL | AUC(0-t) ([1]; Cohort 2, read-out: AUC(0-last), mean): 6620 ng·h/mL | Tmax ([1]; Cohort 2, read-out: Tmax, median): 1 h | Fatal TEAE, number of subjects ([2]; Part 2 (N = 148 per group)): 0 | Fatal TEAE, percent of subjects ([2]; Part 2 (N = 148 per group)): (0.0%) | At Least One LogPad-Solicited TEAE, number of subjects ([2]; human, in vivo): 132 | At Least One LogPad-Solicited TEAE, percent of subjects ([2]; human, in vivo): (89.2%) | At Least One Serious TEAE, number of subjects ([2]; human, in vivo): 3 | At Least One Serious TEAE, percent of subjects ([2]; human, in vivo): (2.0%) | At Least One Serious and Related TEAE, number of subjects ([2]; human, in vivo): 0 | At Least One Serious and Related TEAE, percent of subjects ([2]; human, in vivo): (0.0%) | At Least One Severe and Related TEAE, number of subjects ([2]; human, in vivo): 0 | At Least One Severe and Related TEAE, percent of subjects ([2]; human, in vivo): (0.0%) | At Least One Spontaneously-reported TEAE, number of subjects ([2]; human, in vivo): 138 | At Least One Spontaneously-reported TEAE, percent of subjects ([2]; human, in vivo): (93.2%) | At Least One TEAE Leading to Study Discontinuation, number of subjects ([2]; human, in vivo): 1 | At Least One TEAE Leading to Study Discontinuation, percent of subjects ([2]; human, in vivo): (0.7%) | At Least One TEAE, number of subjects ([2]; human, in vivo): 146 | At Least One TEAE, percent of subjects ([2]; human, in vivo): (98.6%) | TEAE Maximum Relationship to Study Drug: Not Related, number of subjects ([2]; human, in vivo): 42 | TEAE Maximum Relationship to Study Drug: Not Related, percent of subjects ([2]; human, in vivo): (28.4%) | TEAE Maximum Relationship to Study Drug: Related, number of subjects ([2]; human, in vivo): 104 | TEAE Maximum Relationship to Study Drug: Related, percent of subjects ([2]; human, in vivo): (70.3%) | TEAE Maximum Severity: Mild, number of subjects ([2]; human, in vivo): 92 | TEAE Maximum Severity: Mild, percent of subjects ([2]; human, in vivo): (62.2%) | TEAE Maximum Severity: Moderate, number of subjects ([2]; human, in vivo): 49 | TEAE Maximum Severity: Moderate, percent of subjects ([2]; human, in vivo): (33.1%) | TEAE Maximum Severity: Severe, number of subjects ([2]; human, in vivo): 5 | TEAE Maximum Severity: Severe, percent of subjects ([2]; human, in vivo): (3.4%) | treated subjects with treatment-emergent serious adverse events ([2]; human, in vivo): 3 subjects | Pain intensity on movement 0 to 48 hours, Mean [3]: 5.87

Source: patent publication US11400019B2, “Sustained release drug delivery systems with reduced impurities and related methods” (DURECT CORPORATION, priority 2020, dated 2022)
